According to PubChem BioAssay AID1963436 (Molecular Pharmacology Branch, DTP, NCI, 2024):
pIC50: −log10 of the molar value.

Test system: OVCAR-5 complex spheroid (HUVEC/MSC), viability % T/C
Test: Anticancer human tumor OVCAR-5 cell line growth inhibition [Asc];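 also: spheroids exposed to agents for 7 days before readout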;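 as to viability, T/C: 100% = DMSO vehicle-treated wells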
Details: for pIC50: curve of first compound; for viability, T/C: stronger effect = lower value; active = viability on the fitted dose curve at most 10% of control; inactive = the rest
Outline: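 Spheroid model: tumor line + HUVEC + hMSC. Single agents and combinations; top conc. at/near clinical Cmax (10 microM if undetermined), half-log dilutions. DMSO stocks at 800-fold test concentration.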

[1] = second compound 0.1 µM, first compound 0.0316 µM
[2] = second compound 0.1 µM, first compound 0.1 µM
[3] = second compound 0.1 µM, first compound 0.316 µM
[4] = second compound 0.1 µM, first compound 1 µM
[5] = second compound 0.1 µM, first compound 3.16 µM
[6] = second compound 0.1 µM, first compound 10 µM
[7] = second compound 0.316 µM, first compound 0.0316 µM
[8] = second compound 0.316 µM, first compound 0.1 µM
[9] = second compound 0.316 µM, first compound 0.316 µM
[10] = second compound 0.316 µM, first compound 1 µM
[11] = second compound 0.316 µM, first compound 3.16 µM
[12] = second compound 0.316 µM, first compound 10 µM
[13] = second compound 1 µM, first compound 0.0316 µM
[14] = second compound 1 µM, first compound 0.1 µM
[15] = second compound 1 µM, first compound 0.316 µM
[16] = second compound 1 µM, first compound 1 µM
[17] = second compound 1 µM, first compound 3.16 µM
[18] = second compound 1 µM, first compound 10 µM
[19] = second compound 3.16 µM, first compound 0.0316 µM
[20] = second compound 3.16 µM, first compound 0.1 µM
[21] = second compound 3.16 µM, first compound 0.316 µM
[22] = second compound 3.16 µM, first compound 1 µM
[23] = second compound 3.16 µM, first compound 3.16 µM
[24] = second compound 3.16 µM, first compound 10 µM
[25] = second compound 10 µM, first compound 0.0316 µM
[26] = second compound 10 µM, first compound 0.1 µM
[27] = second compound 10 µM, first compound 0.316 µM
[28] = second compound 10 µM, first compound 1 µM
[29] = second compound 10 µM, first compound 3.16 µM
[30] = second compound 10 µM, first compound 10 µM

C=C(F)C(=O)N1CCN(c2nc(OCC3CCCN3C)nc3c2CCN(c2cccc4cccc(Cl)c24)C3)CC1CC#N (stereo not given) + Cc1c(S(C)(=O)=O)c(-c2cc(F)cc(N3CCN(c4ccc(NS(=O)(=O)c5ccc(NC(CCN6CCC(C(=O)OCCCP(=O)(O)O)CC6)CSc6ccccc6)c(S(=O)(=O)C(F)(F)F)c5)cc4)CC3)c2)c(-c2ccc(Cl)cc2)n1C(C)C
inactive: viability, T/C [1] 88.7% | viability, T/C [2] 96.8% | viability, T/C [3] 79.9% | viability, T/C [4] 43.7% | viability, T/C [7] 93.5% | viability, T/C [8] 98% | viability, T/C [9] 78.3% | viability, T/C [10] 25.4% | viability, T/C [13] 81.5% | viability, T/C [14] 89% | viability, T/C [15] 83.3% | viability, T/C [16] 29.9% | viability, T/C [19] 90% | viability, T/C [20] 92.3% | viability, T/C [21] 80.1% | viability, T/C [22] 19.6% | viability, T/C [25] 111% | viability, T/C [26] 131% | viability, T/C [27] 106% | viability, T/C [28] 15.1%
6.25: pIC50 (second compound 3.16 µM)
6.10: pIC50 (second compound 0.1 µM)
6.23: pIC50 (second compound 0.316 µM)
6.19: pIC50 (second compound 1 µM) | pIC50 (second compound 10 µM)
active: viability, T/C [5] 1.2% | viability, T/C [6] 0.31% | viability, T/C [11] 1.91% | viability, T/C [12] 0.12% | viability, T/C [17] 0.65% | viability, T/C [18] 0.74% | viability, T/C [23] 0.82% | viability, T/C [24] 0.14% | viability, T/C [29] 0.46% | viability, T/C [30] 0.21%

C=CC(=O)N1CCN(c2nc(=O)n(-c3c(C)ccnc3C(C)C)c3nc(-c4c(O)cccc4F)c(F)cc23)C(C)C1 (stereo not given) + Cc1c(S(C)(=O)=O)c(-c2cc(F)cc(N3CCN(c4ccc(NS(=O)(=O)c5ccc(NC(CCN6CCC(C(=O)OCCCP(=O)(O)O)CC6)CSc6ccccc6)c(S(=O)(=O)C(F)(F)F)c5)cc4)CC3)c2)c(-c2ccc(Cl)cc2)n1C(C)C
inactive: viability, T/C [1] 100% | viability, T/C [2] 109% | viability, T/C [3] 98.7% | viability, T/C [4] 111% | viability, T/C [5] 114% | viability, T/C [6] 97.5% | viability, T/C [7] 93.4% | viability, T/C [8] 103% | viability, T/C [9] 95.5% | viability, T/C [10] 96.9% | viability, T/C [11] 112% | viability, T/C [12] 102% | viability, T/C [13] 89.8% | viability, T/C [14] 101% | viability, T/C [15] 111% | viability, T/C [16] 98.2% | viability, T/C [17] 97.5% | viability, T/C [18] 106% | viability, T/C [19] 95.4% | viability, T/C [20] 102% | viability, T/C [21] 109% | viability, T/C [22] 103% | viability, T/C [23] 108% | viability, T/C [24] 98.1% | viability, T/C [25] 119% | viability, T/C [26] 136% | viability, T/C [27] 142% | viability, T/C [28] 139% | viability, T/C [29] 144% | viability, T/C [30] 145%
< 5.00: pIC50 (second compound 0.1 µM) | pIC50 (second compound 0.316 µM) | pIC50 (second compound 1 µM) | pIC50 (second compound 3.16 µM) | pIC50 (second compound 10 µM)

CCN1C(C(=O)NC23CCC(C(=O)O)(CC2)CC3)C(c2cccc(Cl)c2F)C2(C(=O)Nc3cc(Cl)ccc32)C12CCCCC2 (stereo not given) + Cc1c(S(C)(=O)=O)c(-c2cc(F)cc(N3CCN(c4ccc(NS(=O)(=O)c5ccc(NC(CCN6CCC(C(=O)OCCCP(=O)(O)O)CC6)CSc6ccccc6)c(S(=O)(=O)C(F)(F)F)c5)cc4)CC3)c2)c(-c2ccc(Cl)cc2)n1C(C)C
inactive: viability, T/C (second compound 0.1 µM, first compound 0.00949 µM) 102% | viability, T/C (second compound 0.1 µM, first compound 0.03 µM) 93.8% | viability, T/C (second compound 0.1 µM, first compound 0.0949 µM) 93.1% | viability, T/C (second compound 0.1 µM, first compound 0.3 µM) 86.9% | viability, T/C (second compound 0.1 µM, first compound 0.949 µM) 97.3% | viability, T/C (second compound 0.1 µM, first compound 3 µM) 92.5% | viability, T/C (second compound 0.316 µM, first compound 0.00949 µM) 86.3% | viability, T/C (second compound 0.316 µM, first compound 0.03 µM) 101% | viability, T/C (second compound 0.316 µM, first compound 0.0949 µM) 90.2% | viability, T/C (second compound 0.316 µM, first compound 0.3 µM) 82.8% | viability, T/C (second compound 0.316 µM, first compound 0.949 µM) 91.3% | viability, T/C (second compound 0.316 µM, first compound 3 µM) 83.3% | viability, T/C (second compound 1 µM, first compound 0.00949 µM) 88% | viability, T/C (second compound 1 µM, first compound 0.03 µM) 85.5% | viability, T/C (second compound 1 µM, first compound 0.0949 µM) 88.5% | viability, T/C (second compound 1 µM, first compound 0.3 µM) 86.9% | viability, T/C (second compound 1 µM, first compound 0.949 µM) 75.4% | viability, T/C (second compound 1 µM, first compound 3 µM) 83% | viability, T/C (second compound 3.16 µM, first compound 0.00949 µM) 84.7% | viability, T/C (second compound 3.16 µM, first compound 0.03 µM) 92.4% | viability, T/C (second compound 3.16 µM, first compound 0.0949 µM) 97.4% | viability, T/C (second compound 3.16 µM, first compound 0.3 µM) 78.7% | viability, T/C (second compound 3.16 µM, first compound 0.949 µM) 74.1% | viability, T/C (second compound 3.16 µM, first compound 3 µM) 69.3% | viability, T/C (second compound 10 µM, first compound 0.00949 µM) 114% | viability, T/C (second compound 10 µM, first compound 0.03 µM) 122% | viability, T/C (second compound 10 µM, first compound 0.0949 µM) 126% | viability, T/C (second compound 10 µM, first compound 0.3 µM) 111% | viability, T/C (second compound 10 µM, first compound 0.949 µM) 102% | viability, T/C (second compound 10 µM, first compound 3 µM) 89.8%
< 5.52: pIC50 (second compound 0.1 µM) | pIC50 (second compound 0.316 µM) | pIC50 (second compound 1 µM) | pIC50 (second compound 3.16 µM) | pIC50 (second compound 10 µM)

COc1c(OCCCN2CCOCC2)ccc2c3n(c(=NC(=O)c4cnc(N)nc4)nc12)CCN3 + Cc1c(S(C)(=O)=O)c(-c2cc(F)cc(N3CCN(c4ccc(NS(=O)(=O)c5ccc(NC(CCN6CCC(C(=O)OCCCP(=O)(O)O)CC6)CSc6ccccc6)c(S(=O)(=O)C(F)(F)F)c5)cc4)CC3)c2)c(-c2ccc(Cl)cc2)n1C(C)C
7.75: pIC50 (second compound 1 µM) | pIC50 (second compound 10 µM)
inactive: viability, T/C (second compound 0.1 µM, first compound 0.00316 µM) 81.8% | viability, T/C (second compound 0.1 µM, first compound 0.01 µM) 73.3% | viability, T/C [1] 46.5% | viability, T/C [2] 22% | viability, T/C [3] 14.2% | viability, T/C (second compound 0.316 µM, first compound 0.00316 µM) 74.7% | viability, T/C (second compound 0.316 µM, first compound 0.01 µM) 63.4% | viability, T/C [7] 37% | viability, T/C [8] 20.3% | viability, T/C (second compound 1 µM, first compound 0.00316 µM) 68.8% | viability, T/C (second compound 1 µM, first compound 0.01 µM) 65.4% | viability, T/C [13] 35.3% | viability, T/C (second compound 3.16 µM, first compound 0.00316 µM) 64.5% | viability, T/C (second compound 3.16 µM, first compound 0.01 µM) 63.7% | viability, T/C [19] 29.7% | viability, T/C (second compound 10 µM, first compound 0.00316 µM) 86.5% | viability, T/C (second compound 10 µM, first compound 0.01 µM) 68.7% | viability, T/C [25] 31.2%
7.55: pIC50 (second compound 0.1 µM)
7.81: pIC50 (second compound 3.16 µM)
7.74: pIC50 (second compound 0.316 µM)
active: viability, T/C [4] 5.21% | viability, T/C [9] 9.08% | viability, T/C [10] 2.87% | viability, T/C [14] 10.8% | viability, T/C [15] 5.94% | viability, T/C [16] 2.46% | viability, T/C [20] 10.2% | viability, T/C [21] 3.29% | viability, T/C [22] 1.07% | viability, T/C [26] 7.93% | viability, T/C [27] 2.43% | viability, T/C [28] 1.35%
